# Laboratory results reported in ChEMBL document CHEMBL1201862, “PubChem BioAssay data set” (2004).
# Active and inactive are the calls of the source.
# What was measured:
# HEK293 = experiment: inhibitors of LMP1-driven NF-kB reporter, dose response, cell-based, HEK293, luciferase, cherry-pick (AID 588343); assay type: functional; settings: Homo sapiens
# [1] = NIH-3T3 fibroblast cytotoxicity, dose response, cytotoxicity control, cell-based, fluorescence, Alamar Blue, secondary assay (AID 2327); assay type: functional;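 note: NIH-3T3 mouse fibroblasts cultured with fluconazole at 8 µg/mL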
# [2] = C. albicans growth with fluconazole, confirmation, fluorescence, retest (AID 2467); assay type: functional, cell-based
# [3] = target: ATP-dependent molecular chaperone HSP82 (Candida albicans (strain WO-1) (Yeast), UniProt C4YTQ8); experiment: loss of DOC-induced GRE-beta-galactosidase reporter signal, dose response, Hsp90 inhibitor project, S. cerevisiae, luminescence (AID 2400); assay type: functional, cell-based;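 note: beta-galactosidase luminescence from glucocorticoid response element reporter as proxy for Hsp90 function; inhibitor potency where signal loss means Hsp90 inhibition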
# [4] = target: T1, Serine/threonine-protein phosphatase (Candida dubliniensis (strain CD36 / CBS 7987 / NCPF 3949 / NRRLY-17841) (Yeast), UniProt B9W6M3); experiment: calcineurin pathway inhibitors in yeast reporter, dose response, S. cerevisiae, CDRE-lacZ, luminescence, secondary (AID 2388); assay type: functional, cell-based;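 note: yeast reporter cells carrying a calcineurin-responsive lacZ construct stimulated with calcium chloride; luminescent beta-galactosidase reporter signal in whole cells rather than isolated phosphatase activity; potency for inhibition where a drop in reporter signal means calcineurin blockade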
# T1 sequence (B9W6M3 whole entry): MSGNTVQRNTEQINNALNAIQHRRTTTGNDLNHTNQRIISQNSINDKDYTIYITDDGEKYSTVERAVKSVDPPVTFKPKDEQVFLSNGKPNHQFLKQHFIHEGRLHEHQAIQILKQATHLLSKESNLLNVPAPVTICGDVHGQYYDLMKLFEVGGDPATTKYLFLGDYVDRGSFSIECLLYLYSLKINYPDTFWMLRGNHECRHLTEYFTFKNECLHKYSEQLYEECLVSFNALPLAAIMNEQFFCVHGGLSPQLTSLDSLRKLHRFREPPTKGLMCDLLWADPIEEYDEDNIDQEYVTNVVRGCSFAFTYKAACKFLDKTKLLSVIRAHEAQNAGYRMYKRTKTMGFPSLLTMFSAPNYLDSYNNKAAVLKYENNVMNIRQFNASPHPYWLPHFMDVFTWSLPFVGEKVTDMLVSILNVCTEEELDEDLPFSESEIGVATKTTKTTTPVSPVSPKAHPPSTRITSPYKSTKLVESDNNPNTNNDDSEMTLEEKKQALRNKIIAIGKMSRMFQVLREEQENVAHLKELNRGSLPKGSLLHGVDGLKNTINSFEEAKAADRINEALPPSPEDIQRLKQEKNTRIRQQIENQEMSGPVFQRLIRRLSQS
# [5] = target: FAD-linked sulfhydryl oxidase ALR (Homo sapiens, UniProt P55789); experiment: inhibitors of human ALR sulfhydryl oxidase, dose response, biochemical, H2O2 detection, luminescence, cherry-pick (AID 493248)
# [6] = target: Dual specificity tyrosine-phosphorylation-regulated kinase 1A (Rattus norvegicus, UniProt Q63470); assay type: biochemical, Homo sapiens
# [7] = target: T2, Calpain-2 catalytic subunit (Sus scrofa, UniProt P43367); experiment: pig calpain II inhibitor potency, dose response, biochemical, fluorogenic peptide substrate (AID 1420); assay type: functional
# T2 sequence (P43367 whole entry): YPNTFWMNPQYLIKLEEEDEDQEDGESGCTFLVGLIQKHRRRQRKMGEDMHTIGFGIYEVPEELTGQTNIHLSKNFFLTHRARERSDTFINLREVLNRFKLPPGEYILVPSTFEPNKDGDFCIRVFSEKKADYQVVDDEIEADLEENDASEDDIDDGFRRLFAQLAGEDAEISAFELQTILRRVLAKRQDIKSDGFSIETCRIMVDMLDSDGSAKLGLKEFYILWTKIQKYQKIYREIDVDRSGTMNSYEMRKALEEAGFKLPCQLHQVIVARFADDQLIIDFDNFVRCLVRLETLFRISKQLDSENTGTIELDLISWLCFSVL
# Cytochrome P450 2C9 = Cytochrome P450 2C9 (Homo sapiens, UniProt P11712)
# Cytochrome P450 2D6 = Cytochrome P450 2D6 (Homo sapiens, UniProt P10635);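 note: CYP2D6 member of a cytochrome P450 panel assay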
# [8] = inhibitors of intracellular T. cruzi replication, confirmation, NIH3T3 host cells, beta-gal luminescence (AID 2044); assay type: functional, cell-based;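 note: intracellular parasites grown in NIH/3T3 mouse fibroblasts as host cells; luminescent beta-galactosidase reporter signal from transgenic T. cruzi replicating inside host cells; inhibitors lower the luminescence signal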
# [9] = target: T3, COUP transcription factor 2 (Homo sapiens, UniProt P24468); experiment: Luminescence-based cell-based high throughput dose response assay to identify inhibitors of COUP-TFII (NR2F2).; assay type: functional;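 note: HEK293 cells transiently cotransfected with COUP-TFII expression vector and reporter; luciferase reporter luminescence driven by COUP-TFII from the pX2-168 reporter plasmid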
# T3 sequence (P24468 whole entry): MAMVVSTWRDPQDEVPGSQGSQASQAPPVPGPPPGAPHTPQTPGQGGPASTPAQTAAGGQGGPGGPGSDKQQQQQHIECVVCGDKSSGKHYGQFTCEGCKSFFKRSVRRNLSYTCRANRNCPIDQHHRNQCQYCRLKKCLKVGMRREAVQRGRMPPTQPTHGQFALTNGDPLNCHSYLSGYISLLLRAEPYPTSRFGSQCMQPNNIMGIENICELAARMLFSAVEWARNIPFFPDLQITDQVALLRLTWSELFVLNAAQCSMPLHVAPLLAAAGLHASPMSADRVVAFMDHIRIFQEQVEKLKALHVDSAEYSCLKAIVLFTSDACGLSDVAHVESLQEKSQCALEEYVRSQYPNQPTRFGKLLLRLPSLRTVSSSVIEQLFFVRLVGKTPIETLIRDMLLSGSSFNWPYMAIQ
# [10] = cytotoxicity toward NIH3T3 fibroblasts, dose response, counter-screen, cell-based, ATP luminescence, mouse fibroblasts (AID 2010); assay type: functional;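 note: cells exposed to compound for about 90 hours before reading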
# Protein Wnt-3a = Protein Wnt-3a (Mus musculus, UniProt P27467); experiment: Wnt3a-driven reporter signaling inhibition, dose response, selectivity assay for Gli-SUFU antagonist project, Wnt-LIGHT cells, luminescence (AID 651570); assay type: functional; settings: read-out: IC50_Mean;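 note: Wnt-LIGHT reporter cells stimulated with conditioned medium from Wnt3a-producing cells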
# INS1 = experiment: beta cell apoptosis inhibitors, cytokine rescue, dose response, luminescence, retest (AID 449756); assay type: functional, cell-based; settings: Rattus norvegicus;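 note: cell death triggered by IL-1 beta plus TNF-alpha plus IFN-gamma mixture; protective hits raise ATP signal compared with cytokine alone wells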
# Vero = experiment: cells; assay type: functional; settings: Chlorocebus sabaeus
# [11] = Luminescence Cell-Based Dose Retest to Confirm Inhibitors of Cancer Stem Cells. [Related pubchem assays (depositor defined):AID2717, AID2721]; assay type: functional; settings: Homo sapiens
# [12] = target: T4, Microphthalmia-associated transcription factor (Homo sapiens, UniProt O75030); experiment: TRPM1 promoter luciferase signal decrease, dose response, MITF inhibitor project, cell-based, SK-MEL-5, cherry-picked, set 3 (AID 493073); assay type: functional
# T4 sequence (O75030 whole entry): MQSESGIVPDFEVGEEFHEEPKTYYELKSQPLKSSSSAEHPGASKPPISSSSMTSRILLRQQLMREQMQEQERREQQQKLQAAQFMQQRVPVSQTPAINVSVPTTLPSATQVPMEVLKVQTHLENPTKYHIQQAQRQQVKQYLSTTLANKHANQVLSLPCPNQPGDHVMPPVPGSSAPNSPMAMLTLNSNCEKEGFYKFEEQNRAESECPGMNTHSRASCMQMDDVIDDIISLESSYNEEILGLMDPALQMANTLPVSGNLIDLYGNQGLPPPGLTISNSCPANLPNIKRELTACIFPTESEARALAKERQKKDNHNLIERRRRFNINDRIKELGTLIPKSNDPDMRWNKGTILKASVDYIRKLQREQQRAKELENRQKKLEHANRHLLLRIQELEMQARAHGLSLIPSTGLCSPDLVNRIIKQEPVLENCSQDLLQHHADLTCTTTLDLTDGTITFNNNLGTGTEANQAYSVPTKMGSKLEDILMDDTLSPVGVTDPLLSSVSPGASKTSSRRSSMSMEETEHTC
# [13] = target: Peroxisome proliferator-activated receptor gamma/Nuclear receptor coactivator 3 (Homo sapiens, UniProt P37231); experiment: TR-FRET dose response biochemical High Throughput Screening assay for agonists of the steroid receptor coactivator 3 (SRC-3) recruitment by the peroxisome proliferator-activated receptor gamma (PPAR gamma): non-selective agonists. [Related pubchem assays: 1301 (Confirmation screen.), 1048 (Primary screen.)]; assay type: functional
# [14] = target: Peroxisome proliferator-activated receptor gamma/Nuclear receptor coactivator 2 (Homo sapiens, UniProt P37231); experiment: (§1) TR-FRET dose response biochemical High Throughput Screening assay for agonists of the steroid receptor coactivator 2 (SRC-2) recruitment by the peroxisome proliferator-activated receptor gamma (PPAR gamma): non-selective agonists. [Related pubchem assays: 1297, 1032 ]; assay type: functional
# [15] = target: Peroxisome proliferator-activated receptor gamma/Nuclear receptor coactivator 1 (Homo sapiens, UniProt P37231); experiment: as §1, with “1 (SRC-1)” for “2 (SRC-2)”, “assays (depositor defined):AID1300, AID1808, AID504735, AID631]” for “assays: 1297, 1032 ]”; assay type: protein assay
# Sequence of ATP-dependent molecular chaperone HSP82 (C4YTQ8 whole entry): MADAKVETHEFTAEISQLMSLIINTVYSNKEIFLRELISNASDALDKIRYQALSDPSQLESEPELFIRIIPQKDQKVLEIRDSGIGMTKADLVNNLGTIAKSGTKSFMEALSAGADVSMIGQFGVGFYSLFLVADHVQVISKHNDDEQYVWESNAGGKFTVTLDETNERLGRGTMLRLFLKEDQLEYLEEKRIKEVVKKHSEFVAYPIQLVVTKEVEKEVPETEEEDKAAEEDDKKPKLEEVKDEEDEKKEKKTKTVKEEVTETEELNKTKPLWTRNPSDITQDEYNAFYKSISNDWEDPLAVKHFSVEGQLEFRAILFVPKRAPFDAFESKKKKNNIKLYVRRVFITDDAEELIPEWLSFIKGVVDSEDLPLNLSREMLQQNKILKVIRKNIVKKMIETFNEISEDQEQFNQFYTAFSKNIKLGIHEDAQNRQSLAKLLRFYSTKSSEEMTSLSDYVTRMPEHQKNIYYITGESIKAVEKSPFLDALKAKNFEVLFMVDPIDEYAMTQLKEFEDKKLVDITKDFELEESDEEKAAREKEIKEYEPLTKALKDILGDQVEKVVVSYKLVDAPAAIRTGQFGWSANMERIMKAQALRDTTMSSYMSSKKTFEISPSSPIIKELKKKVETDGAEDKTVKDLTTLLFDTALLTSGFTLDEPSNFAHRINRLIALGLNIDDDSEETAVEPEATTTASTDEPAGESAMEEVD
# Sequence of FAD-linked sulfhydryl oxidase ALR (P55789 whole entry): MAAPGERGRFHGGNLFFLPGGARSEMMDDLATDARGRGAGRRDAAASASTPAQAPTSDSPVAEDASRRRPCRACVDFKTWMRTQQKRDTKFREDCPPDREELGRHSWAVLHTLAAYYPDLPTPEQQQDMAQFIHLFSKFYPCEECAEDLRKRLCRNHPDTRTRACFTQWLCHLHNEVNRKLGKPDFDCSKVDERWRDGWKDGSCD
# Sequence of Cytochrome P450 2C9 (P11712 whole entry): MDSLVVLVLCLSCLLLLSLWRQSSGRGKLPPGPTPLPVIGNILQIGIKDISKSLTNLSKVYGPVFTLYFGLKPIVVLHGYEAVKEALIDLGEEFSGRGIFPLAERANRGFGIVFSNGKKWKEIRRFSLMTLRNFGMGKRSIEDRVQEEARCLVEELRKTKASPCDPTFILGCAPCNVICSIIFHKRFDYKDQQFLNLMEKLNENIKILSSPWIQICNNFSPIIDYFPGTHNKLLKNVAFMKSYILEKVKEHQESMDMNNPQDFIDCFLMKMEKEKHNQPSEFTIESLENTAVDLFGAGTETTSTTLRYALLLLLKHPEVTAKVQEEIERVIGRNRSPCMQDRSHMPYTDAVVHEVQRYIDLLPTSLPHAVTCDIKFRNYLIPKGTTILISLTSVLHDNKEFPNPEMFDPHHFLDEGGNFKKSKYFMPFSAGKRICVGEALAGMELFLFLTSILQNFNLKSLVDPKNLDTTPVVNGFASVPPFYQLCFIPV
# Sequence of Cytochrome P450 2D6 (P10635 whole entry): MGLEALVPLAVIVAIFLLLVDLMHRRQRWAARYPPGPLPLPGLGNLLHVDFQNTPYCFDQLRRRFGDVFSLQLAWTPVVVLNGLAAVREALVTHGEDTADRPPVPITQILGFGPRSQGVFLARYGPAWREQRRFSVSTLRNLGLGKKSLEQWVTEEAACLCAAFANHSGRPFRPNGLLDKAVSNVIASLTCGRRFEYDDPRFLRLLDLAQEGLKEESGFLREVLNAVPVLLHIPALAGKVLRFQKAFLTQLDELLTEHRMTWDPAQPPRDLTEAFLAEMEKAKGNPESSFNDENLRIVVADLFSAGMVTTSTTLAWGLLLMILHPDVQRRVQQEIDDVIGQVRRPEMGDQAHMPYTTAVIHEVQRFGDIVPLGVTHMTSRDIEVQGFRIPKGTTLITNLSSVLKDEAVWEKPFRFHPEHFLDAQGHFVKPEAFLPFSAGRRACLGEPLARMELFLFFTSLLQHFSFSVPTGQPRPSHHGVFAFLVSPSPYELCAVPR
# Sequence of Peroxisome proliferator-activated receptor gamma/Nuclear receptor coactivator 2 (P37231 whole entry): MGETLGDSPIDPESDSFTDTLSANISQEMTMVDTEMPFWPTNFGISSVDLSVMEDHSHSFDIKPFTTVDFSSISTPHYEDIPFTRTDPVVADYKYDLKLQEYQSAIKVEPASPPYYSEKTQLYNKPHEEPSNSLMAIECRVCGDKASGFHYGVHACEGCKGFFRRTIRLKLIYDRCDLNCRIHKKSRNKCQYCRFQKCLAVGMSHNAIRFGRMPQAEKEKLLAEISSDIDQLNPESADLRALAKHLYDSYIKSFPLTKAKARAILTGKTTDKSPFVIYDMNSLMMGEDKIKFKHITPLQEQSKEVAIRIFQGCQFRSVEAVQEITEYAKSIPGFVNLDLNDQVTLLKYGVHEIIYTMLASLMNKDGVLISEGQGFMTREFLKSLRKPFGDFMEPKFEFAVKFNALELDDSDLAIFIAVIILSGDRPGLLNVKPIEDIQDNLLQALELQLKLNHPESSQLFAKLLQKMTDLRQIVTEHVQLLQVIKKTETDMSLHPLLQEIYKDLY
# Sequence of Peroxisome proliferator-activated receptor gamma/Nuclear receptor coactivator 2 (Q15596 whole entry, further chain): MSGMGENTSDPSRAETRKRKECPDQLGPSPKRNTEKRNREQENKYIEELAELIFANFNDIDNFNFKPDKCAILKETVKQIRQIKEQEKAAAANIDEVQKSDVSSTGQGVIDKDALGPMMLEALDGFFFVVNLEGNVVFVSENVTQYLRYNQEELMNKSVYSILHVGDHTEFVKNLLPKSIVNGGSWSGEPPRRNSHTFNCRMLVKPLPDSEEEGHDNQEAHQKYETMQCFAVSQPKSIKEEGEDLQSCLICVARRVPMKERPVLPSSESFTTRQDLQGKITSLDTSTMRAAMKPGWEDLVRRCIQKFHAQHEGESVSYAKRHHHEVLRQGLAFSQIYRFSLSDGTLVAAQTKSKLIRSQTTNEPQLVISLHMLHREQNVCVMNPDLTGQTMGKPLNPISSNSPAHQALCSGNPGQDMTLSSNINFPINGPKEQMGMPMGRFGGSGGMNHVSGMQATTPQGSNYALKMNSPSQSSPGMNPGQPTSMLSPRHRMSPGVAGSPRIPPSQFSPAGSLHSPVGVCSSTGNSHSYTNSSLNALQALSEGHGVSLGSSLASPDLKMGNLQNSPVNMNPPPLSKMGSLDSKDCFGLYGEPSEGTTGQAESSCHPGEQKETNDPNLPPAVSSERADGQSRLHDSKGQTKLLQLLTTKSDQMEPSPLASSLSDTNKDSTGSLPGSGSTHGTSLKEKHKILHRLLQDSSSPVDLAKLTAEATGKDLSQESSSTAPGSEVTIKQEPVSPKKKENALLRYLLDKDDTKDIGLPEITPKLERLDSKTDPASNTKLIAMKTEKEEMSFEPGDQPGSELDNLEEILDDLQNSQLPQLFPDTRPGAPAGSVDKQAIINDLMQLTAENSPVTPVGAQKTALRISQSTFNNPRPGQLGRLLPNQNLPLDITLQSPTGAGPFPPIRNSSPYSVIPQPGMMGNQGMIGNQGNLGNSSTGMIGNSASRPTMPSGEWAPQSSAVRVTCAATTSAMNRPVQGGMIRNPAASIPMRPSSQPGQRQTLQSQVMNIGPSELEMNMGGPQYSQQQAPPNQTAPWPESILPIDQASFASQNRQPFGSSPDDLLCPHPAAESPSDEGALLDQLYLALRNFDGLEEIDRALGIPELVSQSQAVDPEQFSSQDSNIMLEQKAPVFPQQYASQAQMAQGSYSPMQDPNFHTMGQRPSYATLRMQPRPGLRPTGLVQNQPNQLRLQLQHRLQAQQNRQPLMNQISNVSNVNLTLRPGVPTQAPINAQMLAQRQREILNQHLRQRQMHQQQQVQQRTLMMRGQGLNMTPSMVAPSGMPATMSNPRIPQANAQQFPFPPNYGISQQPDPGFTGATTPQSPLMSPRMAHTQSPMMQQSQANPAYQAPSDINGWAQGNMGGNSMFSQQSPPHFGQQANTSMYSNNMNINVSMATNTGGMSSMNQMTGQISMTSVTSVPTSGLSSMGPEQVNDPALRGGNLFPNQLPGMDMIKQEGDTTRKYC
# Sequence of Protein Wnt-3a (P27467 whole entry): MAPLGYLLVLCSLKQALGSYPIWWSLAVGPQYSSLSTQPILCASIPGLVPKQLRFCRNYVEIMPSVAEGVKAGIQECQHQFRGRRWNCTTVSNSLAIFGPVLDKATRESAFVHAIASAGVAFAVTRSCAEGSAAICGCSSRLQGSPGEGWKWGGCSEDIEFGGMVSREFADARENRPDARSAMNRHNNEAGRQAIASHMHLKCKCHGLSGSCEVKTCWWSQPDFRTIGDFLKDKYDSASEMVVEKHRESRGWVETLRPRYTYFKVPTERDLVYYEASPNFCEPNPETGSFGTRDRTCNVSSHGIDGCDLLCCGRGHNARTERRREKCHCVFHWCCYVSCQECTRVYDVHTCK
smiles,measurement,setting,value
Cc1ccccc1C(=O)c1c[nH]c(C(=O)NCc2ccco2)c1,AC50,HEK293,11.2 µM (active)
CCOC(=O)c1c(-c2ccccc2Cl)cn2ccccc12,EC50,[1],> 160 µM (inactive)
same,EC50,[2],3.75 µM (active)
same,EC50,[3],17.4 µM (active)
same,EC50,[4],> 180 µM (inactive)
COc1cc(/C=C2/SC(=O)NC2=O)ccc1Oc1ccc([N+](=O)[O-])cc1[N+](=O)[O-],AC50,[5],0.156 µM (active)
same,AC50,[6],0.992 µM (active)
same,IC50,[7],7.36 µM (not active)
CCCCN1CCC(CCC(=O)c2cc(Cl)c(N)cc2OC)CC1,AC50,Cytochrome P450 2C9,inconclusive
same,AC50,Cytochrome P450 2D6,12.6 µM (inconclusive)
C[n+]1c2n(c3ccccc31)N=C(c1ccc(-c3ccccc3)cc1)CS2,EC50,[8],0.376 µM (active)
same,EC50,[1],> 160 µM (inactive)
same,IC50,[9],5.03 µM (active)
same,EC50,[2],0.452 µM (active)
same,EC50,[10],9.85 µM (active)
same,EC50,[3],> 160 µM (inactive)
same,IC50,Protein Wnt-3a,0.736 µM (active)
same,AC50,INS1,1.32 µM (active)
same,EC50,[4],> 180 µM (inactive)
COc1ccc(/C=C2/SC(=S)N(CCCC(=O)N3CCN(C)CC3)C2=O)cc1,CC50,Vero,> 25 µM (active)
O=C(NCc1ccco1)c1nc(O)c2nnn(Cc3ccccc3Cl)c2n1,CC50,Vero,18.9 µM (active)
same,AC50,[11],2.4 µM (active)
same,AC50,[12],14.4 µM (active)
Cn1c(=O)cc(SCC(=O)Nc2cccnc2)c2ccccc21,EC50,[13],> 79.4 µM (not active)
same,EC50,[14],> 79.4 µM (not active)
same,EC50,[15],> 79.4 µM (inactive)
Cc1ccc(C)c(OCC(=O)OCc2csc(CC(=O)Nc3ccccc3C)n2)c1,CC50,Vero,> 25 µM (active)
